# Earlier results as cited in PubChem BioAssay AID1259409 (Chemical Carcinogenesis Research Information System (CCRIS), 2018).
# Several values for one entry are separate records, joined by “and”; a condition that tells them apart may be missing. Identical values can stand only once.
# Test system: rodent chemically induced tumor inhibition, incidence and multiplicity
# Experiment: CCRIS tumor inhibitor studies
smiles,measurement,setting,value
COc1cc2c(c(OC)c1OC)-c1c(cc3c(c1OC)OCO3)C[C@H](C)[C@@](C)(O)C2,"tumour outcome (control, treated, inhibition, significance)","Carcinogen: 7,12-DIMETHYLBENZ[A]ANTHRACENE, 57-97-6, Dose [Inhibitor]: 0, 5 UMOL IN 100 µL ACETONE 30 MIN PRIOR EACH PROMOTER DOSE 2/WK FOR 18 WK BEGINNING 7 D POST CARCINOGEN DOSE (STUDY DUR, Route [Inhibitor]: DERMAL, Species: MOUSE, Strain/Sex: ICR/FEMALE, Target Tissue: Type of Lesion: SKIN: PAPILLOMA, Dose [Carcinogen]: 50 UG IN 100 µL ACETONE ONCE, Promoter: 12-O-TETRADECANOYLPHORBOL-13-ACETATE, 16561-29-8","100%, 50%, 50%, not calculated"
CC(C)(C)c1cc(-c2cc(C(C)(C)C)c(O)c(C(C)(C)C)c2)cc(C(C)(C)C)c1O,"tumour outcome (control, treated, inhibition, significance)","Carcinogen: BENZO[A]PYRENE, 50-32-8, Dose [Inhibitor]: 0.03 MMOL/G OF DIET DAILY STARTING 7 D BEFORE AND CONTINUING THROUGH 3 D AFTER CARCINOGEN TREATMENT FOLLOWED BY OBSERVAT, Route [Inhibitor]: ORAL, Species: MOUSE, Strain/Sex: ICR/FEMALE, Target Tissue: Type of Lesion: FORESTOMACH: NEOPLASM, Dose [Carcinogen]: 1 MG IN 0.2 ML CORN OIL 2/WK FOR 4 WK, Promoter: NONE USED","90%, 89%, 1%, not significant"
CC1=CCC(O)(C(C)C)CC1 (configuration not stated),outcome,"Carcinogen: 7,12-DIMETHYLBENZ[A]ANTHRACENE (57-97-6), Dose [Inhibitor]: 10 MG/KG BW DAILY BETWEEN 45 AND 59 D OF AGE (STUDY DURATION: 1 YR), Route [Inhibitor]: INTRAGASTRIC (GASTRIC) IN HYDROXYETHYLCELLULOSE SODIUM, Species: RAT, Strain/Sex: SPRAGUE-DAWLEY/FEMALE, Target Tissue: Type of Lesion: MAMMARY: ADENOCARCINOMA, Dose [Carcinogen]: 75 MG/KG BW IN SESAME OIL (ONCE) AT 60 D OF AGE","75%, 85%"
same,outcome,"Carcinogen: 7,12-DIMETHYLBENZ[A]ANTHRACENE (57-97-6), Dose [Inhibitor]: 10 MG/KG BW DAILY FOR 6 MO AFTER CARCINOGEN ADMINISTRATION, Route [Inhibitor]: INTRAGASTRIC (GASTRIC), Species: RAT, Strain/Sex: SPRAGUE-DAWLEY/FEMALE, Target Tissue: Type of Lesion: MAMMARY: ADENOCARCINOMA, Dose [Carcinogen]: 75 MG/KG BW AT 55 D OF AGE (STUDY DURATION: 1 YR)","75%, 58%"
CC1=C(/C=C/C(C)=C/C=C/C(C)=C/C(=O)Nc2ccc(O[C@@H]3O[C@H](C(=O)O)[C@@H](O)C(O)C3O)cc2)C(C)(C)CCC1 (some centres not stated),"tumour outcome (control, treated, inhibition, significance)","Carcinogen: 7,12-DIMETHYLBENZ[A]ANTHRACENE, 57-97-6, Dose [Inhibitor]: 0, 1 MMOL/KG IN DIET FOR THE DURATION OF STUDY BEGINNING 1 WK PRIOR TO CARCINOGEN DOSE (STUDY DURATION: 105 WK), Route [Inhibitor]: ORAL, Species: RAT, Strain/Sex: SPRAGUE-DAWLEY/FEMALE, Target Tissue: Type of Lesion: MAMMARY GLAND: TUMOR, Dose [Carcinogen]: 15 MG IN 1 ML SESAME OIL ONCE, Promoter: NONE USED","88%, 36%, 59%, not significant"
CCCCC(C)(O)C/C=C/[C@H]1[C@H](O)CC(=O)[C@@H]1CCCCCCC(=O)OC (some centres not stated),"tumour outcome (control, treated, inhibition, significance)","Carcinogen: N-METHYL-N'-NITRO-N-NITROSOGUANIDINE, 70-25-7, Dose [Inhibitor]: 0, 200 UG/KG/D IN DRINKING WATER FOR 52 WK CONCURRENTLY WITH CARCINOGEN TREATMENT (STUDY DURATION: 52 WK), Route [Inhibitor]: ORAL, Species: RAT, Strain/Sex: SPRAGUE-DAWLEY/MALE, Target Tissue: Type of Lesion: GLANDULAR STOMACH: ADENOCARCINOMA, Dose [Carcinogen]: 120 MG/L IN DRINKING WATER FOR 52 WK, Promoter: NONE USED","9/15 (60%), 5/20 (25%), 58%, p<0.05"
CN1C(=O)NC(c2ccccc2)(c2ccccc2)C1=O,"tumour outcome (control, treated, inhibition, significance)","Carcinogen: 7,12-DIEMTHYLBENZ[A]ANTHRACENE, 57-97-6, Dose [Inhibitor]: 0, 200 UG/D IN ETHANOL/DRINKING WATER SOLUTION (1:500 ML) ADMINISTERED TO PINEALECTOMIZED RATS BEGINNING 1 WK POST CARCI, Route [Inhibitor]: ORAL, Species: RAT, Strain/Sex: SPRAGUE-DAWLEY/FEMALE, Target Tissue: Type of Lesion: MAMMARY GLAND: TUMOR, Dose [Carcinogen]: 10 MG/ML SESAME OIL ADMINISTERED ONCE AT 55 D OF AGE, Promoter: NONE USED","80%, 36%, 55%, p<0.05"
same,"tumour outcome (control, treated, inhibition, significance)","Carcinogen: 7,12-DIMETHYLBENZ[A]ANTHRACENE, 57-97-6, Dose [Inhibitor]: 0, 200 UG/D ETHANOL/DRINKING WATER SOLUTION (1:500 ML) ADMINISTERED TO INTACT RATS BEGINNING 1 WK POST CARCINOGEN DOSE A, Route [Inhibitor]: ORAL, Species: RAT, Strain/Sex: SPRAGUE-DAWLEY/FEMALE, Target Tissue: Type of Lesion: MAMMARY GLAND: TUMOR, Dose [Carcinogen]: 10 MG/ML SESAME OIL ADMINISTERED ONCE AT 55 D OF AGE, Promoter: NONE USED","88%, 24%, 73%, p<0.005"
same,"tumour outcome (control, treated, inhibition, significance)","Carcinogen: 7,12-DIMETHYLBENZ[A]ANTHRACENE, 57-97-6, Dose [Inhibitor]: 0, 200 UG/D IN ETHANOL/DRINKING WATER SOLUTION (1:500 ML) ADMINISTERED TO INTACT RATS BEGINNING 1 WK POST CARCINOGEN DOS, Route [Inhibitor]: ORAL, Species: RAT, Strain/Sex: SPRAGUE-DAWLEY/FEMALE, Target Tissue: Type of Lesion: MAMMARY GLAND: TUMOR, Dose [Carcinogen]: 10 MG/ML SESAME OIL ADMINISTERED ONCE AT 55 D OF AGE, Promoter: NONE USED","70%, 16%, 77%, p<0.005"
same,"tumour outcome (control, treated, inhibition, significance)","Carcinogen: 7,12-DIMETHYLBENZ[A]ANTHRACENE, 57-97-6, Dose [Inhibitor]: 0, 200 UG/D IN ETHANOL/DRINKING WATER SOLUTION (1:500 ML) ADMINISTERED TO INTACT RATS BEGINNING 1 WK PRIOR TO CARCINOGEN, Route [Inhibitor]: ORAL, Species: RAT, Strain/Sex: SPRAGUE-DAWLEY/FEMALE, Target Tissue: Type of Lesion: MAMMARY GLAND: TUMOR, Dose [Carcinogen]: 10 MG/ML SESAME OIL ADMINISTERED ONCE AT 55 D OF AGE, Promoter: NONE USED","70%, 27%, 61%, p<0.05 and 88%, 38%, 57%, p<0.05"
same,"tumour outcome (control, treated, inhibition, significance)","Carcinogen: 7,12-DIMETHYLBENZ[A]ANTHRACENE, 57-97-6, Dose [Inhibitor]: 0, 200 UG/D IN ETHANOL/DRINKING WATER SOLUTION (1:500 ML) ADMINISTERED TO PINEALECTOMIZED RATS BEGINNING 1 WK POST CARCI, Route [Inhibitor]: ORAL, Species: RAT, Strain/Sex: SPRAGUE-DAWLEY/FEMALE, Target Tissue: Type of Lesion: MAMMARY GLAND: TUMOR, Dose [Carcinogen]: 10 MG/ML SESAME OIL ADMINISTERED ONCE AT 55 D OF AGE, Promoter: NONE USED","90%, 31%, 66%, p<0.005"
same,"tumour outcome (control, treated, inhibition, significance)","Carcinogen: 7,12-DIMETHYLBENZ[A]ANTHRACENE, 57-97-6, Dose [Inhibitor]: 0, 200 UG/D IN ETHANOL/DRINKING WATER SOLUTION (1:500 ML) ADMINISTERED TO PINEALECTOMIZED RATS BEGINNING 1 WK PRIOR TO C, Route [Inhibitor]: ORAL, Species: RAT, Strain/Sex: SPRAGUE-DAWLEY/FEMALE, Target Tissue: Type of Lesion: MAMMARY GLAND: TUMOR, Dose [Carcinogen]: 10 MG/ML SESAME OIL ADMINISTERED ONCE AT 55 D OF AGE, Promoter: NONE USED","90%, 64%, 29%, not calculated"
same,"tumour outcome (control, treated, inhibition, significance)","Carcinogen: 7,12-DIMETHYLBENZ[A]ANTHRACENE, 57-97-6, Dose [Inhibitor]: 0, 200 UG/D IN ETHANOL/DRINKING WATER SOLUTION. (1:500 ML) ADMINISTERED TO PINEALECTOMIZED RATS BEGINNING 1 WK PRIOR TO, Route [Inhibitor]: ORAL, Species: RAT, Strain/Sex: SPRAGUE-DAWLEY/FEMALE, Target Tissue: Type of Lesion: MAMMARY GLAND: TUMOR, Dose [Carcinogen]: 10 MG/ML SESAME OIL ADMINISTERED ONCE AT 55 D OF AGE, Promoter: NONE USED","80%, 65%, 19%, not calculated"
[O]=[V](=[O])[OH],"tumour outcome (control, treated, inhibition, significance)","Carcinogen: 7,12-DIMETHYLBENZ[A]ANTHRACENE (57-97-6), Dose [Inhibitor]: DRINKING WATER, Route [Inhibitor]: 4.27 µM/L DIRECTLY AFTER CARCINOGEN UNTIL 34 WKS, Species: RAT, Strain/Sex: SPRAGUE-DAWLEY/FEMALE, Target Tissue: Type of Lesion: MAMMARY: CARCINOMA, Dose [Carcinogen]: 0.5 MG/100 G BW AT 50 D OF AGE ONCE (STUDY DURATION: 35 WKS)","100%, 60%, 40%, p<0.05"
same,outcome,"Carcinogen: 7,12-Dimethylbenzanthracene, 57-97-6, Dose [Inhibitor]: 0.5 ppm in drinking water beginning immediately after carcinogen up to 35 wks study duration, Route [Inhibitor]: Oral, Species: Rat, Strain/Sex: Sprague-Dawley/Female, Target Tissue: Type of Lesion: Mammary gland: Adenocarcinoma, Dose [Carcinogen]: 0.5 mg/100 g bw iv once, study duration 35 wk, Promoter: None","9/10 (90%), 6/10 (60%), p<0.05"
same,outcome,"Carcinogen: INTRAVENOUS; Dose [Inhibitor]: 7,12-DIMETHYLBENZ[A]ANTHRACENE; 57-97-6; Route [Inhibitor]: 0; 0.5 PPM IN DRINKING WATER FOR 35 WK BEGINNING IMMEDIATELY POST CARCINOGEN TREATMENT, STUDY DURATION: 35 WK), Species: RAT, Strain/Sex: SPRAGUE-DAWLEY/FEMALE, Target Tissue: Type of Lesion: 9/10 (90%), 6/10 (60%), 33%, P<0.05","8.11, 5.33, 34%, p<0.01"
same,"tumour outcome (control, treated, inhibition, significance)","Carcinogen: N,N-Diethylnitrosamine;(55-18-5, Dose [Inhibitor]: 0.5 ppm as vanadium starting 4 wk prior to DEN and stopped at week 4, Route [Inhibitor]: Oral (drinking water), Species: Rats, Strain/Sex: Sprague-Dawley/Male, Target Tissue: Type of Lesion: Liver: Preneoplastic nodules, Dose [Carcinogen]: Single 200 mg/kg dose in 0.9% saline at wk 4 of experiment, Promoter: Phenobarbital","15/15 (100%), 4/12 (33.33%), 66.67%"
